Results on 2 molecules are retold here after BindingDB's records for doi:10.1016/s0960-894x(02)00294-9 (Glaxosmithkline, 2002).

The test deals with Human cytomegalovirus protease (HHV-5). The test is described as follows: Tested in vitro for its binding affinity against Protease.

What is called Ki is a measure of affinity in units of concentration, obtained from inhibition or displacement. Molecule `C[C@@H]1[C@H](C)[C@@H]1C(=O)N1C(=O)[C@@H](C)[C@@H]2[C@@H]1CCN2C(=O)[C@@H]1CCCN1S(=O)(=O)c1cccc2c(N(C)C)cccc12` [4-[1-(5-dimethylamino-1-naphthylsulfonyl)tetrahydro-1H-2-pyrrolylcarbonyl]-1-(2,3-dimethylcyclopropylcarbonyl)-3-methylperhydropyrrolo[3,2-b]pyrrol-2-one] showed a Ki of 1100 nM.

Turning to `C[C@@H]1C(=O)N(c2nccs2)[C@H]2CCN(C(=O)[C@@H]3CCCN3S(=O)(=O)c3cccc4c(N(C)C)cccc34)[C@H]12` [(3S,3aR,6aS)-4-[(S)-1-(5-Dimethylamino-naphthalene-1-sulfonyl)-pyrrolidine-2-carbonyl]-3-methyl-1-thiazol-2-yl-hexahydro-pyrrolo[3,2-b]pyrrol-2-one], the affinity, expressed as Ki, was 400 nM.
